Test: xn = mol fraction of the nth substance listed

O=S(=O)([N-]S(=O)(=O)C(F)(F)F)C(F)(F)F.[Na+] + O=S(=O)([N-]S(=O)(=O)C(F)(F)F)C(F)(F)F.[Li+]
100 kPa, frequency 1 MHz, x2 = 0.67
Details	electrical conductivity [S/m]
473.6 K	0.114
483.1 K	0.156
492.1 K	0.205
502.4 K	0.269
512.5 K	0.342
523.2 K	0.435
531.5 K	0.533
543.3 K	0.635
552 K	0.753
561.2 K	0.91
571 K	1.02

100 kPa, x2 = 0.67
Details	viscosity [mPa·s]
473.9 K	411
483.1 K	267
492.6 K	203
502.5 K	146
512.8 K	106
523.6 K	78.1
531.9 K	60.7
543.5 K	46.8
552.5 K	36.2
561.8 K	29.1

CCCC[n+]1ccn(C)c1.COP(=O)([O-])OC + CCCC(=O)[O-].CC[NH+](CC)CCO
101 kPa, x2 = 0
Details	viscosity [mPa·s]
298.15 K	609
318.15 K	168.9
328.15 K	100.9
348.15 K	43.18
373.15 K	19.25

N#C[N-]S(=O)(=O)C(F)(F)F.[Li+] + CCCC[N+]1(C)CCCC1.N#C[N-]S(=O)(=O)C(F)(F)F
101 kPa, frequency 0 MHz
Details	electrical conductivity [S/m]
303 K, x1 = 0.1	0.295
318 K, x1 = 0.2	0.194
323 K, x1 = 0.05	0.706
323 K, x1 = 0.1	0.558

101 kPa
Details	viscosity [mPa·s]
303 K, x1 = 0.1	89.5
318 K, x1 = 0.2	150
323 K, x1 = 0.05	30.3
323 K, x1 = 0.1	43.5
328 K, x1 = 0.1	34.6

CC(=O)C(=O)O + CC[N+](CC)(CC)CC.[Cl-]
101.3 kPa, x2 = 0.3333
Details	viscosity [mPa·s]
298.15 K	89.1
308.15 K	57.5
318.15 K	37.5
328.15 K	24.05
338.15 K	16.05

CCCCCCCCn1cc[n+](C)c1.F[B-](F)(F)F + NC(N)=O + O
298.15 K, 100 kPa
Details	viscosity [mPa·s]
x2 = 0, x3 = 0.9487	5.25
x2 = 0.008492, x3 = 0.9402	5.16
x2 = 0.01695, x3 = 0.9318	5.13
x2 = 0.03322, x3 = 0.9155	5.12
x2 = 0.0408, x3 = 0.9079	5.13

O=C1CCCO1 + CCC[N+]1(C)CCCC1.O=S(=O)([N-]S(=O)(=O)C(F)(F)F)C(F)(F)F
101 kPa, x2 = 0
Details	viscosity [mPa·s]
288.15 K	2.146
318.15 K	1.398
348.15 K	0.99
